Measurements: patent publication US3937809A, “Addition compound of a nucleotide and an amino acid and the use thereof in protection against actinic radiation” (priority 1974, dated 1976)
In brackets after ≈: the same amount, converted by molar mass.

Legend:
[1] = UV absorption in % at 300, 280 and 240 nm (Table 2); type: physicochemical
From the text: The following Table illustrates the ultraviolet absorption characteristics at wave lengths of 300 nm, 280 nm, and 240 nm for the compounds of the invention, as well as other known compounds which have been used in the past as sun protective agents.

[2] = Solubility in water at 20°C (Table 3); type: physicochemical
[3] = background statement; cited from earlier work
[4] = UV spectrum and extinction coefficients in water (Table I); type: physicochemical
[5] = pH of solution (Table I); type: physicochemical; conditions: c=0.005
From the text: The following Table 1 lists additional compounds of the invention along with their physical properties.
Molecular Brutto N(%) pH UV- Extinction coefficients

Molecule	UV Absorption in %, 240 nm [1]	UV Absorption in %, 280 nm [1]	UV Absorption in %, 300 nm [1]	also measured
Nc1cc(C(=O)O)c(O)c(S(=O)(=O)O)c1 [5-Amino-3-sulfosalicylic acid-Na2]	87%	0%	26%	–
Nc1ccccc1C(=O)O [Anthranilic acid(o-Aminobenzoic acid), o-Aminobenzoic acid]	99%	48%	84%	–
Nc1ccn([C@@H]2O[C@H](COP(=O)(O)O)[C@@H](O)[C@H]2O)c(=O)n1 [Cytidine-5'-monophosphoric acid-Na2]	86%	88%	3%	–
Nc1nc2nc[nH]c2c(=O)[nH]1 [Guanine]	73%	62%	11%	–
O=C(O)c1ccccc1O [Salicylic acid]	98%	74%	94%	–
O=c1ccn([C@@H]2O[C@H](COP(=O)(O)O)[C@@H](O)[C@H]2O)c(=O)[nH]1 [Uridine-5'-monophosphoric acid-Na2]	70%	55%	0%	–
Nc1ccc(C(=O)O)cc1 [p-Aminobenzoic acid]	91%	100%	100%	ultraviolet absorption of known agents (in words) [3]: insufficient absorption in the ultraviolet portion of the spectrum
Adenosine-5'-mono-phosphoric acid-(Na-tryptophane)2 [No. 5]	–	–	–	UV-spectrum λmax [4]: 220 mμ; mol.Ext.coeff. ε ([4]; c=0.005, d-l): 320000±4%; Extinction coefficients E250/E260 ([4]; c=0.005, d-l, ratio): 0.76; Extinction coefficients E280/E260 ([4]; c=0.005, d-l, ratio): 0.67; Extinction coefficients E290/E260 ([4]; c=0.005, d-l, ratio): 0.33; pH [5]: 7.0
Cytidine-5'-monophosphoric acid-(o-aminobenzoic acid)2 Na2	98%	79%	55.5%	–

Further lines, with some results ahead:

UV Absorption in %, 240 nm [1]	UV Absorption in %, 280 nm [1]	UV Absorption in %, 300 nm [1]	Molecule	also measured
98.5%	99%	99%	Nc1ccc(C(=O)O)c(O)c1 [4-Aminosalicylic acid]	–
100%	52%	14%	Nc1ncnc2nc[nH]c12 [Adenine]	solubility [2]: 840 µg/mL (≈ 6.22 mM)
80%	8%	6%	Nc1ncnc2c1ncn2[C@@H]1O[C@H](COP(=O)(O)O)[C@@H](O)[C@H]1O [Adenosine-5'-monophosphoric acid-Na2]	–
100%	98%	95%	Nc1cc[nH]c(=O)n1 [Cytosine]	solubility [2]: 4000 µg/mL (≈ 36 mM)
100%	65%	6%	O=c1[nH]cnc2nc[nH]c12 [Hypoxanthine]	–
90%	45%	42%	O=c1cc[nH]c(=O)[nH]1 [Uracil]	solubility [2]: 2000 µg/mL (≈ 17.8 mM)
